Measured values taken from BindingDB's records for doi:10.1021/acs.jmedchem.6b00275 (University of Washington, 2016).

Tests used:
[1] = biological target: Dihydroorotate dehydrogenase (quinone), mitochondrial (Homo sapiens, UniProt Q02127); test: Inhibition of N-terminal His6-tagged human DHODH expressed in Escherichia coli BL21 using L-DHO as substrate and CoQ as co-substrate by DCIP dye based spectrophotometric assay
Cytochrome P450 3A4 = Cytochrome P450 3A4 (Homo sapiens, UniProt P08684); test: Inhibition of CYP3A4 in human liver microsomes using isoform-specific probe substrates in presence of NADPH-generating system by LC-MS analysis
Cytochrome P450 2C8 = biological target: T1, Cytochrome P450 2C8 (Homo sapiens, UniProt P10632); test: Inhibition of CYP2C8 in human liver microsomes using isoform-specific probe substrates in presence of NADPH-generating system by LC-MS analysis
T1 sequence (P10632 whole entry): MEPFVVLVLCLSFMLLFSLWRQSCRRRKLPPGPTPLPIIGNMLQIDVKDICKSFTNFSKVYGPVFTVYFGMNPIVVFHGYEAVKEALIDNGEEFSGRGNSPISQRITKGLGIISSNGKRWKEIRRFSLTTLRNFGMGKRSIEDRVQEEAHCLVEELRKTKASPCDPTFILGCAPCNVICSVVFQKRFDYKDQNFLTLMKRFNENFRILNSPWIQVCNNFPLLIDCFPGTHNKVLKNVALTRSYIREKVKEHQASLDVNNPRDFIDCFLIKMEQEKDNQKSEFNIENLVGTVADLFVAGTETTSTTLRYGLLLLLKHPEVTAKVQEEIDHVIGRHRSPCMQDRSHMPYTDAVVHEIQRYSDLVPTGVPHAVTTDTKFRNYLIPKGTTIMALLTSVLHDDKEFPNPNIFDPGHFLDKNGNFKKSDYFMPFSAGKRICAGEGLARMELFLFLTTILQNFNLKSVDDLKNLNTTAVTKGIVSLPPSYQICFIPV

Cytochrome P450 2C9 = Cytochrome P450 2C9 (Homo sapiens, UniProt P11712); test: Inhibition of CYP2C9 in human liver microsomes using isoform-specific probe substrates in presence of NADPH-generating system by LC-MS analysis
Cytochrome P450 1A2 = biological target: T2, Cytochrome P450 1A2 (Homo sapiens, UniProt P05177); test: Inhibition of CYP1A2 in human liver microsomes using isoform-specific probe substrate in presence of NADPH-generating system by LC-MS analysis
T2 sequence (P05177 whole entry): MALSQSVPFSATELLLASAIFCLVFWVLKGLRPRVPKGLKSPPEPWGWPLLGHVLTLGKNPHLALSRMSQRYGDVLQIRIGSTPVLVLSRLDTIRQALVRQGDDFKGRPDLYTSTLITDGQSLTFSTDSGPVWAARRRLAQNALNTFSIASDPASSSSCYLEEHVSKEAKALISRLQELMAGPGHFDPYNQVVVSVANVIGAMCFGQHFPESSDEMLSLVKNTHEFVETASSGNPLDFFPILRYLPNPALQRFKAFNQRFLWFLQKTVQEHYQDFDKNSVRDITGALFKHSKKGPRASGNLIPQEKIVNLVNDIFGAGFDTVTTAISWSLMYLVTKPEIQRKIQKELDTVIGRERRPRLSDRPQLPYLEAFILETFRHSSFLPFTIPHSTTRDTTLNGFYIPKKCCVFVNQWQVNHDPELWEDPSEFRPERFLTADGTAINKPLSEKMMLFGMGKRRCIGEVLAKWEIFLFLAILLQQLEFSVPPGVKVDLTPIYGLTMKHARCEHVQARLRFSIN

Cytochrome P450 2D6 = Cytochrome P450 2D6 (Homo sapiens, UniProt P10635); test: Inhibition of CYP2D6 in human liver microsomes using isoform-specific probe substrates in presence of NADPH-generating system by LC-MS analysis
Cytochrome P450 2B6 = biological target: T3, Cytochrome P450 2B6 (Homo sapiens, UniProt P20813); test: Inhibition of CYP2B6 in human liver microsomes using isoform-specific probe substrates in presence of NADPH-generating system by LC-MS analysis
T3 sequence (P20813 whole entry): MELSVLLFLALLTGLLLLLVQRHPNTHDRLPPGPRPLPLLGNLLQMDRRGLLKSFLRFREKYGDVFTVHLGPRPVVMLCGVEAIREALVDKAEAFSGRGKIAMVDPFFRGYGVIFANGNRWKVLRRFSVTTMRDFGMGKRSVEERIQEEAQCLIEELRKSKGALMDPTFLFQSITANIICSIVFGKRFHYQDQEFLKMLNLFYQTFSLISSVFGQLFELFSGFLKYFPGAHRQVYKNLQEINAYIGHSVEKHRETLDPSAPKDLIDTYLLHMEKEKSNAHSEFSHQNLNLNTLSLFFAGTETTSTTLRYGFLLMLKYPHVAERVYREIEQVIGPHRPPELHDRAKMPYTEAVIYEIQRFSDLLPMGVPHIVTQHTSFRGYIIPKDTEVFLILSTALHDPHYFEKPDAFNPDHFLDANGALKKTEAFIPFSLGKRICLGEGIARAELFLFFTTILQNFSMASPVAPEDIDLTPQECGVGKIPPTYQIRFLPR

[2] = biological target: Dihydroorotate dehydrogenase (quinone), mitochondrial (Rattus norvegicus, UniProt Q63707); test: Inhibition of N-terminal His6-tagged rat DHODH expressed in Escherichia coli BL21 expressed in Escherichia coli BL21 using L-DHO as substrate and CoQ as co-substrate by DCIP dye based spectrophotometric assay
Cytochrome P450 2C19 = Cytochrome P450 2C19 (Homo sapiens, UniProt P33261); test: Inhibition of CYP2C19 in human liver microsomes using isoform-specific probe substrates in presence of NADPH-generating system by LC-MS analysis
Cytochrome P450 2C19, sequence (P33261 whole entry, canonical isoform): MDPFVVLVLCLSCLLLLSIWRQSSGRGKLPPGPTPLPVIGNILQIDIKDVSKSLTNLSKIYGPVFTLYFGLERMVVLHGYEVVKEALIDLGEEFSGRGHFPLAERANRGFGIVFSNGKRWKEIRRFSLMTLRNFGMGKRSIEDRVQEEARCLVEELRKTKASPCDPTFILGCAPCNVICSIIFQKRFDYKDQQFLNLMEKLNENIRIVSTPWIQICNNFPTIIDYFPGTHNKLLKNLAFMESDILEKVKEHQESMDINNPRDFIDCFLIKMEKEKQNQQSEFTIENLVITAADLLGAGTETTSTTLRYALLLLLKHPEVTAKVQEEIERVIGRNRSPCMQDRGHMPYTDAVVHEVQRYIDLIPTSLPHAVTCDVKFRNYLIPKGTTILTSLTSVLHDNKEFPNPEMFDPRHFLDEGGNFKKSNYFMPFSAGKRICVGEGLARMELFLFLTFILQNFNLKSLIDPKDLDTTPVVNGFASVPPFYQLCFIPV

Cytochrome P450 2D6, sequence (P10635 whole entry, canonical isoform): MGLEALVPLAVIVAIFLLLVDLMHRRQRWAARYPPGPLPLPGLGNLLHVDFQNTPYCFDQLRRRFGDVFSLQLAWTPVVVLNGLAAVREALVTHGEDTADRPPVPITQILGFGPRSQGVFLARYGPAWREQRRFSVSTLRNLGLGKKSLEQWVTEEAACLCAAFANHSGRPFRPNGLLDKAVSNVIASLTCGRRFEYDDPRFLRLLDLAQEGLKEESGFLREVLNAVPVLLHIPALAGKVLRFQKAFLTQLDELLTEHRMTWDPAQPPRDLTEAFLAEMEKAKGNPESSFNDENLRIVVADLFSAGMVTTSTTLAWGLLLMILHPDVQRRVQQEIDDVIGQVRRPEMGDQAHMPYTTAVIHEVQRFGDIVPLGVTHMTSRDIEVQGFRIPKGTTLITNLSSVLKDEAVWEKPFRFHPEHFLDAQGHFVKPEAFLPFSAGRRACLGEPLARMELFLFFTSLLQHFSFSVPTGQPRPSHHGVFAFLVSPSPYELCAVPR
Dihydroorotate dehydrogenase (quinone), mitochondrial (Rattus norvegicus, UniProt Q63707), sequence (Q63707 whole entry, canonical isoform): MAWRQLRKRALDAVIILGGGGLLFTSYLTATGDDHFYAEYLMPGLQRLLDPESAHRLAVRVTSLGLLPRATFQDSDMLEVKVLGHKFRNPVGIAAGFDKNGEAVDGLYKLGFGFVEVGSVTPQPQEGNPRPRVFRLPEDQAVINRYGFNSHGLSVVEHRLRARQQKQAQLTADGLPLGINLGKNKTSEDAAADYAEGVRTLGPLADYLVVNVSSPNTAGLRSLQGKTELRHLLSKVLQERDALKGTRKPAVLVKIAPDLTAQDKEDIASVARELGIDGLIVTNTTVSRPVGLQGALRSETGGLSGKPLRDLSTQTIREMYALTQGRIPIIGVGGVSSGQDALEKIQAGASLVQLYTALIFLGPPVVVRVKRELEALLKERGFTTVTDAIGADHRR
Cytochrome P450 2C9, sequence (P11712 whole entry, canonical isoform): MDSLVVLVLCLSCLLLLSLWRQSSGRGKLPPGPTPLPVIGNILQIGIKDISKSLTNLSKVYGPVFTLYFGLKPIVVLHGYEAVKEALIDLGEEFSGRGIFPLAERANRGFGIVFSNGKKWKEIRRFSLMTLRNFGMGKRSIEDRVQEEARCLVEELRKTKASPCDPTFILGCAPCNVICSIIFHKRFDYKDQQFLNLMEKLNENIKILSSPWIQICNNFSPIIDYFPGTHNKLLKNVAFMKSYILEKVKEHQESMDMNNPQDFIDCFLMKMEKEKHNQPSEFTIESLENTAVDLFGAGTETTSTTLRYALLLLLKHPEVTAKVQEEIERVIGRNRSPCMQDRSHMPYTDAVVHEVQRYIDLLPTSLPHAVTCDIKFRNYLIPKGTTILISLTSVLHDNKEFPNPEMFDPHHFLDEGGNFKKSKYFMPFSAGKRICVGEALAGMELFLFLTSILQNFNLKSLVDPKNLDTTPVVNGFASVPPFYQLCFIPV
Dihydroorotate dehydrogenase (quinone), mitochondrial (Homo sapiens, UniProt Q02127), sequence (Q02127 whole entry, canonical isoform): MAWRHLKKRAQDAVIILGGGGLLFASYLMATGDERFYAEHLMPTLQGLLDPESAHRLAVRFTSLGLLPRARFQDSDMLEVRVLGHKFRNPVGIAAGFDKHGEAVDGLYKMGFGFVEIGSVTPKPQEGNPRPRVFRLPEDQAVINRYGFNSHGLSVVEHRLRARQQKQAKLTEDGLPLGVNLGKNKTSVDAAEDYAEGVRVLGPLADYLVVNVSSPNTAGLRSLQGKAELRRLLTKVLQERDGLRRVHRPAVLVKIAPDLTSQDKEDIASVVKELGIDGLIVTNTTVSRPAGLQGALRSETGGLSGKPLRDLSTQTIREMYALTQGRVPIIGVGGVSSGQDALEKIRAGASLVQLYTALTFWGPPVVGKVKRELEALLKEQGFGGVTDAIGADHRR
Cytochrome P450 3A4, sequence (P08684 whole entry, canonical isoform): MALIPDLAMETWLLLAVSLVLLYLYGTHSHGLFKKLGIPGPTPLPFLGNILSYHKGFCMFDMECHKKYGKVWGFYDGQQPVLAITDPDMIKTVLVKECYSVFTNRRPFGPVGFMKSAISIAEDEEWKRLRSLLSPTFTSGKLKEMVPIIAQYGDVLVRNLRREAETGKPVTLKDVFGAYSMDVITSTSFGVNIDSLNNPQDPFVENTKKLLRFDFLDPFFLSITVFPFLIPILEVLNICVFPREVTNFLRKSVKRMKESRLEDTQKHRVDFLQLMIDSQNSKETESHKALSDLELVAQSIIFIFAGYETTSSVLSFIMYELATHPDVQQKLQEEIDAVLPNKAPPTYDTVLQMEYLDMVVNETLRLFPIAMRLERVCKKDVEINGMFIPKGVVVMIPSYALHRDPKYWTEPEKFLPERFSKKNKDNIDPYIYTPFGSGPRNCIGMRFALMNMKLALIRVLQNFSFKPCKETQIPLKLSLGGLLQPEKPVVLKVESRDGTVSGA

Row | SMILES | IC50 [1] [µM] | IC50 (Cytochrome P450 3A4) [µM] | IC50 (Cytochrome P450 2C8) [µM] | IC50 (Cytochrome P450 2C9) [µM] | IC50 (Cytochrome P450 1A2) [µM] | IC50 (Cytochrome P450 2D6) [µM] | IC50 (Cytochrome P450 2B6) [µM] | IC50 [2] [µM] | IC50 (Cytochrome P450 2C19) [µM]
1 | Cc1cc(NC2CCc3cc(Cl)ccc3C2)n2nc(C(C)(F)F)nc2n1 (stereo unspecified) | > 100 | > 20 | > 20 | 10.2 | > 20 | 20 | 18.4 | > 100 | 
2 | Cc1cc(NC2CCc3cc(Br)ccc3C2)n2nc(C(C)(F)F)nc2n1 (stereo unspecified) | > 100 |  | 18.7 | 8.7 | > 20 | > 20 | 17.7 | > 100 | > 20
3 | Cc1cc(N[C@H]2CCc3ccc(Br)cc3C2)n2nc(C(C)(F)F)nc2n1 |  | > 20 | 16.9 | 3.1 | > 20 | 3.9 | > 20 | > 100 | > 20
4 | COc1ccc2c(c1)CC(Nc1cc(C)nc3nc(C(C)(F)F)nn13)CC2 (stereo unspecified) | > 100 |  |  |  |  |  |  |  | 
5 | Cc1cc(NC2CCc3ccc(Cl)cc3C2)n2nc(C(F)(F)F)nc2n1 (stereo unspecified) | > 50 |  |  |  |  |  |  |  | 
